Test results published in ChEMBL document CHEMBL2150920, “Discovery of a potent and selective small molecule hGPR91 antagonist” (Bioorg Med Chem Lett, 2011).
The source made the active and inactive calls. The rule behind the calls is not given here.

Columns and labels:
[1] = target: T1, Succinate receptor 1 (Homo sapiens) (UniProt Q9BXA5); assay: Antagonist activity at human GPR91 receptor expressed in CHO-K1 cells co-expressing Galpha and Gqi5 G-protein assessed as inhibition of succinate-induced increase in intracellular calcium level at 10 uM by FLIPR assay; format: functional, cell-based
T1 sequence (whole entry): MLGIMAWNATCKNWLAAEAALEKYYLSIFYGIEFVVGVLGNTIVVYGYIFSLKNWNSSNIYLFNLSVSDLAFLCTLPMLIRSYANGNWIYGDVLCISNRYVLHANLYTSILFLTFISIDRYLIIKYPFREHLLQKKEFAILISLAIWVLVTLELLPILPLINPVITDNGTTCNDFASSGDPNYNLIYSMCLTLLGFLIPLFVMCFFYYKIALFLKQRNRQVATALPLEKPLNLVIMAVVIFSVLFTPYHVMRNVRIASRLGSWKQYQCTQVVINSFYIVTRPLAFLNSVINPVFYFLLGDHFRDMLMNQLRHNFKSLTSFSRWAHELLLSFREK

Liver microsomes = assay: Intrinsic clearance in rat liver microsomes preincubated for 5 mins before addition of NADPH measured after 30 mins by LC/MS/MS analysis; format: ADME, Microsome; settings: 0.5 h
Succinate receptor 1 [2] = target: T2, Succinate receptor 1 (Rattus norvegicus, UniProt Q6IYF9); assay: Antagonist activity at rat GPR91 receptor expressed in CHO-K1 cells co-expressing Galpha and Gqi5 G-protein assessed as inhibition of succinate-induced increase in intracellular calcium level by FLIPR assay; format: functional, cell-based
T2 sequence (Q6IYF9 whole entry): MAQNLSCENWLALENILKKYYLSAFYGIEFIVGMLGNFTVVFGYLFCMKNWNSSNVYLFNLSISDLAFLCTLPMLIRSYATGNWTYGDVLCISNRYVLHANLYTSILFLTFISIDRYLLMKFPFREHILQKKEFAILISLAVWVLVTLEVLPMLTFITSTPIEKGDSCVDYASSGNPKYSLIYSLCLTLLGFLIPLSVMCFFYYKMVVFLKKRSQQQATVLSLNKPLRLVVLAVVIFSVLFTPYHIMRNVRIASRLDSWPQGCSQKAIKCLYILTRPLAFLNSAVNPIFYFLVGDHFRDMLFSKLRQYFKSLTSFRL

[3] = target: 2-oxoglutarate receptor 1 (Homo sapiens, UniProt Q96P68); assay: Antagonist activity at human GPR99 receptor expressed in CHO-K1 cells co-expressing Galpha and Gqi5 G-protein assessed as inhibition of succinate-induced increase in intracellular calcium level at by FLIPR assay; format: functional, cell-based
[4] = Cmax in Wistar rat at 5 mg/kg, iv by LC/MS/MS analysis; format: ADME, organism-based; parameters: dose 5 mg/kg, route intravenous; settings: in vivo
[5] = Plasma clearance in Wistar rat at 5 mg/kg, iv; format: ADME, organism-based; parameters: dose 5 mg/kg, route intravenous
[6] = Volume of distribution at steady state in Wistar rat at 5 mg/kg, iv; format: ADME, organism-based; parameters: dose 5 mg/kg, route intravenous; settings: in vivo, read-out: Vdss
[7] = Terminal half life in Wistar rat at 5 mg/kg, iv; format: ADME, organism-based; parameters: dose 5 mg/kg, route intravenous; settings: in vivo, read-out: beta t1/2 (converted)
[8] = Cmax in Wistar rat at 50 mg/kg, ip by LC/MS/MS analysis; format: ADME, organism-based; parameters: dose 50 mg/kg, route intraperitoneal; settings: in vivo
[9] = Tmax in Wistar rat at 50 mg/kg, ip; format: ADME, organism-based; parameters: dose 50 mg/kg, route intraperitoneal; settings: in vivo
[10] = AUC (0 to 8 hrs) in Wistar rat plasma at 50 mg/kg, ip; format: ADME, organism-based; parameters: time < 8 hr, dose 50 mg/kg, route intraperitoneal
[11] = Plasma concentration in Wistar rat plasma at 50 mg/kg, ip at 2 hrs; format: ADME, organism-based; parameters: dose 50 mg/kg, route intraperitoneal
[12] = Plasma concentration in Wistar rat plasma at 50 mg/kg, ip at 4 hrs; format: ADME, organism-based; parameters: dose 50 mg/kg, route intraperitoneal
[13] = Plasma concentration in Wistar rat plasma at 50 mg/kg, ip at 8 hrs; format: ADME, organism-based; parameters: dose 50 mg/kg, route intraperitoneal
[14] = Drug concentration in Wistar rat kidney at 50 mg/kg, ip after 4 hrs; format: ADME, organism-based; parameters: dose 50 mg/kg, route intraperitoneal; settings: read-out: Drug uptake
Rattus norvegicus [15] = assay: Hypotensive activity in Wistar rat assessed as inhibition of succinate-induced increase in mean arterial pressure at 50 mg/kg, ip after 2 hrs post dose; format: functional; settings: Artery, route intraperitoneal
Rattus norvegicus [16] = assay: Hypotensive activity in Wistar rat assessed as inhibition of succinate-induced increase in mean arterial pressure at 50 mg/kg, ip after 4 hrs post dose; format: functional; settings: Artery, route intraperitoneal
[17] = Plasma protein binding in Wistar rat at 50 mg/kg, ip; format: ADME, organism-based; parameters: dose 50 mg/kg, route intraperitoneal; settings: read-out: PPB
Succinate receptor 1 [18] = target: T3, Succinate receptor 1 (Homo sapiens, UniProt Q9BXA5); assay: Antagonist activity at human GPR91 receptor expressed in CHO-K1 cells co-expressing Galpha and Gqi5 G-protein assessed as inhibition of succinate-induced increase in intracellular calcium level by FLIPR assay; format: functional, cell-based
T3 sequence (Q9BXA5 whole entry): T1 sequence (whole entry)

Sequence of 2-oxoglutarate receptor 1 (Q96P68 whole entry, looked up): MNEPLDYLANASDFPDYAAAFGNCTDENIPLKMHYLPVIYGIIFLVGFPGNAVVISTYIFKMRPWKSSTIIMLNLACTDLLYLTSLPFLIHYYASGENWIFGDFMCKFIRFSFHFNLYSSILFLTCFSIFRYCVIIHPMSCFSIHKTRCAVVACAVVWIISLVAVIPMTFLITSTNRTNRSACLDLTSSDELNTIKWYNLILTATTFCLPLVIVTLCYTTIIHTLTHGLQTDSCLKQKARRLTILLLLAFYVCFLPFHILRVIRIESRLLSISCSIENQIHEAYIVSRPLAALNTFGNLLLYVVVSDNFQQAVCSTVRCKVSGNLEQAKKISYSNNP

| SMILES | Intrinsic clearance (Liver microsomes) | IC50 (Succinate receptor 1 [18]) | other results |
| --- | --- | --- | --- |
| CC(=O)Nc1cccc(-c2ccc(CNC(=O)CCCc3ccc4cccnc4n3)cc2)c1 | – | – | inhibition [1]: inactive |
| O=C(O)Cc1cccc(-c2ccc(CNC(=O)CCCc3ccc4cccnc4n3)cc2)c1 | – | – | inhibition [1]: inactive |
| N#Cc1cccc(-c2ccc(CNC(=O)CCCc3ccc4cccnc4n3)cc2)c1 | 0.1 nmol/min/mg | – | inhibition [1]: inactive |
| FC(F)(F)c1cccc(-c2ccc(-c3nnc(CCCc4ccc5cccnc5n4)o3)cc2)c1 | 0.3 nmol/min/mg | 200 nM | – |
| NC(C(=O)NCc1ccc(-c2ccc(F)c(C(F)(F)F)c2)cc1)c1ccc(-c2ccc3cccnc3n2)cc1 (configuration not stated) | 0.15 nmol/min/mg | 330 nM | – |
| O=C(CCCc1ccc2cccnc2n1)NCc1csc(-c2cccc(Cl)c2)n1 | 0.4 nmol/min/mg | 700 nM | – |
| O=C(CCCc1ccc2cccnc2n1)NCc1cc(-c2cccc(Cl)c2)no1 | 0.09 nmol/min/mg | 65 nM | – |
| O=C(CCCc1ccc2cccnc2n1)NCc1nc(-c2cccc(Cl)c2)cs1 | 0.18 nmol/min/mg | 300 nM | – |
| O=C(CCCc1ccc2cccnc2n1)NCc1ccc(-c2cccc(F)c2C(=O)O)cc1F | 0.08 nmol/min/mg | – | inhibition [1]: inactive |
| FC(F)(F)c1ccc(-c2nnc(CCCCc3ccc4cccnc4n3)o2)cc1C(F)(F)F | 0.3 nmol/min/mg | 170 nM | – |

Further lines, with some results ahead:

| Intrinsic clearance (Liver microsomes) | IC50 (Succinate receptor 1 [18]) | SMILES | other results |
| --- | --- | --- | --- |
| 1.2 nmol/min/mg | 30 nM | Cc1cccc(-c2ccc(CNC(=O)CCCc3ccc4cccnc4n3)cc2)c1 | IC50 (Succinate receptor 1 [2]): 7 nM; IC50 [3]: > 30000 nM; Cmax [4]: 19000 nM; clearance [5]: 64.7 mL/min/kg; Vd [6]: 0.5 L/kg; half-life [7]: 6 min; Cmax [8]: 3700 nM; Tmax [9]: 108 min; AUC(0-t) at 8 h [10]: 17.4 µM·h; concentration at 2 h [11]: 1800 nM; concentration at 4 h [12]: 2000 nM; concentration at 8 h [13]: 1100 nM; concentration at 4 h [14]: 7000 nM; inhibition in vivo at 50 mg/kg (Rattus norvegicus [15]): 71%; inhibition in vivo at 50 mg/kg (Rattus norvegicus [16]): 67%; fraction unbound [17]: 0.01 |
| 0.1 nmol/min/mg | 22 nM | O=C(CCCc1ccc2cccnc2n1)NCc1ccc(-c2ccc(F)c(C(F)(F)F)c2)cc1 | – |
| 0.17 nmol/min/mg | 16 nM | C[C@H](NC(=O)C(O)(c1ccc(-c2ccc3cccnc3n2)cc1)C(F)(F)F)c1ccc(-c2ccc(F)c(C(F)(F)F)c2)cc1 (some centres not stated) | – |
| 0.84 nmol/min/mg | 31 nM | O=C(Cc1ccc(-c2ccc3cccnc3n2)cc1)NCc1ccc(-c2ccc(F)c(Cl)c2)cc1 | – |
